# Patent US5047512A, “Immobilized cyclophilin and methods of using such” (priority 1987, dated 1991)
# “And” between values parts separate entries of the source, which are not always exact repeats. Equal values may be shown once. Where a SMILES comes first, the peptide text is derived from it. [ ]: non-standard residue; d: D form. NMe(dihydroBmt) = CCCC[C@@H](C)[C@@H](O)[C@H](NC)C(=O)O; NMeL = CN[C@@H](CC(C)C)C(=O)O; NMeV = CN[C@H](C(=O)O)C(C)C; Sar = CNCC(=O)O
# Columns and labels:
# cyclophilin = target: T1, cyclophilin (Bos taurus, UniProt P62935); test: Cyclophilin affinity: enhancement of the intrinsic tryptophan fluorescence of cyclophilin by CsA or analogs; type: binding; conditions: 5 ug/ml cyclophilin, pH 7.2; for Cyclophilin affinity 0.25 ug/ml: ligand 0.25 ug/ml; for Cyclophilin affinity 1.0 ug/ml: ligand 1.0 ug/ml
# T1 construct: from tissue; host or cells: purified from tissue cytosol
# T1 sequence (P62935 whole entry): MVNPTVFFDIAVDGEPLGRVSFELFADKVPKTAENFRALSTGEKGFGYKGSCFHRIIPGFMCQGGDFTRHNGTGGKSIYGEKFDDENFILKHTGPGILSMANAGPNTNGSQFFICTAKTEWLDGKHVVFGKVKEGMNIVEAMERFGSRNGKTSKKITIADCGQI
# [1] = Retention of analog relative to CsA on a uBondapak phenyl column as a measure of hydrophobicity; type: physicochemical; conditions: isocratic 60% acetonitrile, 1 ml/min
# [2] = Isoelectric point of cyclophilin; type: physicochemical
# Method: The column was harvested at a flow rate of 1 ml/min. and the pH of each fraction was measured prior to titration with 1M potassium dihydrogen phosphate to pH 7.0.
# [3] = Stability of CsA binding activity of cyclophilin; type: physicochemical
# Description: Similarly, it can be used to purify the ligand from a composition containing ligand. For example, the cyclophilin can be used for purifying CsA or related structures from a yeast fermentation broth in which the CsA is produced. Further, it can be used to select compounds which bind to cyclophilin as a screening test for identifying new immunosuppressant drugs. In these various procedures, it is preferred, although not required, to immobilize the cyclophilin. This can be accomplished by any procedure known in the art. A particularly useful immobilizing matrix is agarose having carboxy terminated C12 spacer arm esterfied to N-hydroxysuccinimide. This matrix is commercially available under the name Affigel-10 (Biorad). The immobilized cyclophilin is prepared by effecting a transamination with the N-hydroxysuccinimide being split off and the cyclophilin replacing it. The binding of the cyclophilin to this matrix can result in a marked stabilization of the bound activity through a three-dimensional stabilization achieved by multiple bonds through the ε-amino groups of lysine.
# [4] = CsA binding activity (3H-CsA binding, Sephadex LH-20 columns); conditions: for CsA binding specific activity: purified bovine isoforms, weak cation exchange HPLC; for CsA bound per mole of cyclophilin species: stoichiometry, major and minor isoforms
# Method: A typical procedure for the purification of cyclophilin will next be described. […] After addition of 10 ul ^3 H-CsA (50 ug/ml; 0.05 uCi/ml in 40% ethanol), tubes were agitated gently and 50 ul was applied to 1.8 ml Sephadex LH-20 (hydroxypropylated […]) columns pre-equilibrated with assay buffer. The samples were then washed into the columns with 500 ul of assay buffer followed by an additional 500 ul to elute cyclophilin-CsA complexes. Elution fractions were diluted in 5.6 ml Liquiscint (a fluor-containing liquid to permit β-scintillation counting of ^3 H) and the binding activity quantified as equal to (cpm - background).div.(quench correction×^3 H-CsA specific activity)×(volume of test sample).
# The isoforms of bovine cyclophilin were separated by weak cation exchange high pressure liquid chromatography. […] Samples were injected onto a weak cation exchange HPLC column (Synchropak CM300:[…]; pore size 300 Å) pre-equilibrated with 5 mM potassium phosphate, 5 mM 2-ME, pH 7.2. The isoforms were eluted at 1 ml/min with a concave gradient (5 mM potassium phosphate, pH 7.2 to 175 mM NaCl, 5 mM potassium phosphate, pH 7.2) generated with a gradient programmer. Milligram quantities of the bovine cyclophilin isoforms were obtained by automating injection, gradient elution and collection. […] The disassociation constant is about 2×10^-7 M.
Compound,Cyclophilin affinity 0.25 ug/ml (cyclophilin),Cyclophilin affinity 1.0 ug/ml (cyclophilin),Retention time of analog relative to CsA [1],other results
"C/C=C/C[C@@H](C)[C@@H](O)[C@H]1C(=O)N[C@@H]([C@@H](C)O)C(=O)N(C)CC(=O)N(C)[C@@H](CC(C)C)C(=O)N[C@@H](C(C)C)C(=O)N(C)[C@@H](CC(C)C)C(=O)N[C@@H](C)C(=O)N[C@H](C)C(=O)N(C)[C@@H](CC(C)C)C(=O)N(C)[C@@H](CC(C)C)C(=O)N(C)[C@@H](C(C)C)C(=O)N1C [CsC, cyclosporin C]",0.31,0.69,0.70,
C/C=C/C[C@@H](C)[C@@H](O)[C@H]1C(=O)N[C@@H](C(C)C)C(=O)N(C)CC(=O)N(C)[C@@H](CC(C)C)C(=O)N[C@@H](C(C)C)C(=O)N(C)[C@@H](CC(C)C)C(=O)N[C@@H](C)C(=O)N[C@H](C)C(=O)N(C)[C@@H](CC(C)C)C(=O)N(C)[C@@H](CC(C)C)C(=O)N(C)[C@@H](C(C)C)C(=O)N1C [CsD],0.21,0.69,1.20,
C/C=C/C[C@@H](C)[C@@H](O)[C@H]1C(=O)N[C@@H](CCC)C(=O)N(C)CC(=O)N(C)[C@@H](CC(C)C)C(=O)N[C@@H](C(C)C)C(=O)N(C)[C@@H](CC(C)C)C(=O)N[C@@H](C)C(=O)N[C@H](C)C(=O)N(C)[C@@H](CC(C)C)C(=O)N(C)[C@@H](CC(C)C)C(=O)N(C)[C@@H](C(C)C)C(=O)N1C [CsG],0.30,0.87,1.14,
CCCC[C@@H](C)[C@@H](O)[C@H]1C(=O)N[C@@H]([C@@H](C)O)C(=O)N(C)CC(=O)N(C)[C@@H](CC(C)C)C(=O)N[C@@H](C(C)C)C(=O)N(C)[C@@H](CC(C)C)C(=O)N[C@@H](C)C(=O)N[C@H](C)C(=O)N(C)[C@@H](CC(C)C)C(=O)N(C)[C@@H](CC(C)C)C(=O)N(C)[C@@H](C(C)C)C(=O)N1C [Dihydro-CsC] (cyclo(A[dA][NMeL][NMeL][NMeV][NMe(dihydroBmt)]T[Sar][NMeL]V[NMeL])),0.33,0.70,0.79,
CCCC[C@@H](C)[C@@H](O)[C@H]1C(=O)N[C@@H](C(C)C)C(=O)N(C)CC(=O)N(C)[C@@H](CC(C)C)C(=O)N[C@@H](C(C)C)C(=O)N(C)[C@@H](CC(C)C)C(=O)N[C@@H](C)C(=O)N[C@H](C)C(=O)N(C)[C@@H](CC(C)C)C(=O)N(C)[C@@H](CC(C)C)C(=O)N(C)[C@@H](C(C)C)C(=O)N1C [Dihydro-CsD] (cyclo(A[dA][NMeL][NMeL][NMeV][NMe(dihydroBmt)]V[Sar][NMeL]V[NMeL])),0.19,0.72,1.28,
C/C=C/C[C@@H](C)[C@@H](OC(C)=O)[C@H]1C(=O)N[C@@H](CC)C(=O)N(C)CC(=O)N(C)[C@@H](CC(C)C)C(=O)N[C@@H](C(C)C)C(=O)N(C)[C@@H](CC(C)C)C(=O)N[C@@H](C)C(=O)N[C@H](C)C(=O)N(C)[C@@H](CC(C)C)C(=O)N(C)[C@@H](CC(C)C)C(=O)N(C)[C@@H](C(C)C)C(=O)N1C [O-Acetyl-CsA],-0.02,-0.03,1.69,
Bovine cyclophilin: Bovine thymocyte cyclophilin contains 163 amino acid residues; sequence in FIG. 1,,,,isoelectric point [2]: about 9.6
Human cyclophilin: N-terminal sequence (72 residues) of bovine and human cyclophilin is completely identical,,,,isoelectric point [2]: 7.4 and 9.1
"cyclophilin: homogeneous cytosolic binding protein which has a molecular weight of approximately 17,600 daltons",,,,"stability of CsA binding activity ([3]; temperature, pH, proteases, in words): unstable at 56 °C and at pH 4 or 9.5, and sensitive to proteases, i.e. trypsin; irreversible loss of CsA binding activity ([3]; unbound cyclophilin in solution with 8M urea, after dialysis): at least 60%; loss of CsA binding activity in 30% acetonitrile ([3]; unbound cyclophilin, 10 minute exposure to 30% acetonitrile): complete loss of activity; CsA binding specific activity of purified cyclophilin ([4]; purified cyclophilin): above 50 ug per mg of protein"
major isoform of cyclophilin: major isoform of bovine cyclophilin separated by weak cation exchange HPLC,,,,CsA binding specific activity [4]: 77 ug per mg of protein; CsA bound per mole of cyclophilin species [4]: about one
minor isoform of cyclophilin: minor isoform of bovine cyclophilin separated by weak cation exchange HPLC,,,,CsA binding specific activity [4]: 67 ug per mg of protein; CsA bound per mole of cyclophilin species [4]: about one
